Experimental data from patent US9856259B2, “Heterocyclic compounds and uses thereof” (Plexxikon Inc., priority 2014, dated 2018).

Key:
[1] = system: cancer cells such leukemia and lymphoma, multiple myeloma cells, NUT midline carcinoma and glioblastoma cells; settings: literature; cited from earlier work
[2] = system: MYC promoter / c-myc transcription in MV-4-11 cells; settings: literature (Dawson M A et al. 2011); cited from earlier work
[3] = system: MV-4-11; test: Oncology cell growth assay, MV-4-11 3 d growth; type: cell-based; settings: Homo sapiens, MV4-11; MV-4-11 cells, 72 hours, CellTiter Glo; read-out: Cell activity (IC50 μM) MV-4-11 3 d-Growtb
Method in brief: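 MV-4-11 AML cells (MLL-AF4) seeded 3000/well, then exposed to 8-point 1:3 compound dilutions up to 10 μM final, 0.2% DMSO, for 72 h. Growth read by CellTiter Glo luminescence, normalised to DMSO controls; pIC50 from four-parameter fit.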

[4] = molecular target: T1, BRD4-BD12 (Homo sapiens, UniProt O60885); test: Alphascreen binding assay, BRD4(1 2) H4; settings: BRD4 dual bromodomains with acetylated Histone 4 peptide, read-out: Biochemical activity (IC50 μM) BRD4(1 2) H4
T1 construct: dual bromodomains (BRD4-BD12 (1-477), BRD4-BD12 (1-472)); six-His tag (N); made in house; host or cells: E. coli BL21-CodonPlus (DE3)
Method in brief: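 N-His-tagged human BRD4 tandem bromodomains (1-477 or 1-472, E. coli-expressed) and biotinylated tetra-acetylated histone H4 1-21 peptide, preincubated 1 h at room temperature with compound in HEPES pH 7.5/NaCl/BSA/Triton/DTT. AlphaScreen nickel-chelate/streptavidin beads added (7.5 μg/mL), read after 30 min. pIC50 from four-parameter fit of control-normalized data.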

[5] = system: cancer cell lines / MV-4-11 Myc reporter cell line; test: Bromodomain cell assays of Example 8 (at least one of them); type: cell-based; settings: Homo sapiens, MV4-11; at least one of the bromodomain cell assays described in Example 8
Method in brief: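 Antiproliferation: 3000 cells/well, 8-point 1:3 titration from 10 µM final, 0.2% DMSO, 72 h, CellTiter Glo luminescence. Myc reporter: MV-4-11 with E-box firefly luciferase, 25,000 cells, same titration, 24 h; One-Glo luminescence with CellTiter-Fluo viability; 10 µM JQ1 as low control. pIC50 from four-parameter fit.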

Row | SMILES | activity in variety of cancer cells [1] | BRD4 recruitment to the MYC promoter [2] | c-myc transcription [2] | IC50 [3] [µM] | IC50 [4] [µM] | IC50 [5] [µM]
1 | COc1cc2c(cc1-c1c(C)noc1C)ncc1[nH]c(=O)n([C@H](C)c3ccccn3)c12 [iBET 151] | have shown activity | disrupt | downregulate |  |  | 
2 | Cc1sc2c(c1C)C(c1ccc(Cl)cc1)=N[C@@H](CC(=O)OC(C)(C)C)c1nnc(C)n1-2 [JQ1] | have shown activity |  |  |  |  | 
3 | Cc1noc(C)c1-c1ccc2c(-c3ccc(C(=O)O)cc3)nn(C(c3ccccc3)c3ccccn3)c2c1 (stereo not shown) [Compound P-2007, 4-[6-(3,5-dimethylisoxazol-4-yl)-1-[phenyl(2-pyridyl)methyl]indazol-3-yl]benzoic acid] |  |  |  | ≤ 1 | ≤ 1 | < 10
4 | Cc1noc(C)c1-c1cnc2c(-c3ccc(C(=O)O)cc3)cn([C@@H](C)c3ccccn3)c2n1 [Compound P-2050, 4-[3-(3,5-dimethylisoxazol-4-yl)-5-[(1S)-1-(2-pyridyl)ethyl]pyrrolo[2,3-b]pyrazin-7-yl]benzoic acid] |  |  |  | ≤ 1 | ≤ 1 | < 10
5 | COC(=O)c1ccc(-c2nn(C(c3ccccc3)c3ccccn3)c3cc(-c4c(C)noc4C)ccc23)cc1 (stereo not shown) [Compound P-2006, methyl 4-[6-(3,5-dimethylisoxazol-4-yl)-1-[phenyl(2-pyridyl)methyl]indazol-3-yl]benzoate] |  |  |  | ≤ 1 | ≤ 1 | < 10
6 | Cc1noc(C)c1-c1ccc2c(-c3cnn(C)c3)nn(CC3CCC(F)(F)CC3)c2c1 [Compound P-2001, 4-[1-[(4,4-difluorocyclohexyl)methyl]-3-(1-methylpyrazol-4-yl)indazol-6-yl]-3,5-dimethyl-isoxazole] |  |  |  | ≤ 1 | ≤ 1 | < 10
7 | Cc1noc(C)c1-c1cnc2c(-c3cnn(C(F)F)c3)nn(CC3(F)CCCCC3)c2c1 [Compound P-2088, 4-[3-[1-(difluoromethyl)pyrazol-4-yl]-1-[(1-fluorocyclohexyl)methyl]pyrazolo[4,3-b]pyridin-6-yl]-3,5-dimethyl-isoxazole] |  |  |  | ≤ 1 | ≤ 1 | < 10
8 | Cc1noc(C)c1-c1cnc2c(-c3ccc(C#N)nc3)cn([C@@H](C)c3ccccn3)c2n1 [Compound P-2055, 5-[3-(3,5-dimethylisoxazol-4-yl)-5-[(1S)-1-(2-pyridyl)ethyl]pyrrolo[2,3-b]pyrazin-7-yl]pyridine-2-carbonitrile] |  |  |  | ≤ 1 | ≤ 1 | < 10
9 | [2H]C([2H])(C1CCC(F)(F)CC1)n1cc(-c2ccc(C(=O)O)cc2)c2ncc(-c3c(C)noc3C)nc21 [Compound P-2044, 4-[5-[dideuterio-(4,4-difluorocyclohexyl)methyl]-3-(3,5-dimethylisoxazol-4-yl)pyrrolo[2,3-b]pyrazin-7-yl]benzoic acid] |  |  |  | ≤ 1 | ≤ 1 | < 10
10 | Cc1noc(C)c1-c1ccc2c(-c3cnn(C)c3)nn(C(c3ccccc3)c3ccccn3)c2c1 (stereo not shown) [Compound P-2004, 3,5-dimethyl-4-[3-(1-methylpyrazol-4-yl)-1-[phenyl(2-pyridyl)methyl]indazol-6-yl]isoxazole] |  |  |  | ≤ 1 | ≤ 1 | < 10
11 | [2H]C([2H])(C1CCC(F)(F)CC1)n1ccc2ncc(-c3nn(C(F)F)nc3C)nc21 [Compound P-2042] |  |  |  | 10 to 200 | 1 to 10 | < 10
12 | Cc1noc(C)c1-c1cnc2[nH]cc(CC3CCC(F)(F)CC3)c2n1 [Compound P-2077, 4-[7-[(4,4-difluorocyclohexyl)methyl]-5H-pyrrolo[2,3-b]pyrazin-2-yl]-3,5-dimethyl-isoxazole] |  |  |  | 1 to 10 | 1 to 10 | < 10
13 | COC(=O)Cc1ccc(-c2cn(C(c3ccccc3)c3ccccn3)c3nc(-c4c(C)noc4C)cnc23)cc1 (stereo not shown) [Compound P-2047, methyl 2-[4-[3-(3,5-dimethylisoxazol-4-yl)-5-[phenyl(2-pyridyl)methyl]pyrrolo[2,3-b]pyrazin-7-yl]phenyl]acetate] |  |  |  | ≤ 1 | ≤ 1 | < 10
